Laboratory results published in PubChem BioAssay AID1996.
In brackets after ≈: the same amount, converted by molar mass.

Conditions: buffer; pH 7.4; 200.0 µM

SMILES	solubility kinetic [µg/mL]
Cc1ccc(NC(=O)CCNC(=O)c2ccco2)cc1Cl	20.3 (≈ 66.2 µM)
Cn1c(=O)cc(N)n(-c2ccccc2)c1=O	> 32.6
CCOc1ccc(N2C(=O)Cc3ccccc3C2=O)cc1	26.9 (≈ 95.6 µM)
O=C(COC(=O)c1c(F)cccc1Cl)NC1CCCC1	> 45
O=C(Nc1nccs1)c1ccc(-c2ccc(Cl)cc2)o1	1.9 (≈ 6.23 µM)
COc1ccc(NC2=NCCCS2)cc1OC	> 37.8
O=c1oc2ccccc2n1Cc1ccccc1	8.6 (≈ 38.2 µM)
COc1ccc(CCNC(=O)C2CCC(=O)N2S(=O)(=O)c2ccc(C)cc2)cc1 (stereo not given)	61.2 (≈ 147 µM)
Cc1ccc([N+](=O)[O-])c(OCCn2cnc3ccccc32)c1	11.6 (≈ 39 µM)
COc1ccc2[nH]c(C(=O)NCc3ccccc3)c(C)c2c1.Cl	2.7
Cc1ccc2nc(-c3ccccc3NC(=O)CCC(=O)O)c(=O)[nH]c2c1	> 52.7
CC(NS(=O)(=O)/C=C/c1ccccc1)C(=O)O (stereo not given)	34.2 (≈ 134 µM)
COc1ccc(C(=O)n2cc(C(C)=O)c3ccccc32)cc1	1.3 (≈ 4.43 µM)
CCOc1ccc(CCNC(=O)CCC(=O)c2cccs2)cc1OCC	> 56.3
Cc1ccsc1CNC(=O)c1c(-c2ccccc2)noc1C	22.2 (≈ 71.1 µM)
Cc1ccc(C(C)NC(=O)c2cccs2)cc1 (stereo not given)	20.7 (≈ 84.4 µM)
CCOc1ccc2[nH]c(C)c(CN3CCCCCC3)c(=O)c2c1	> 47.2
CCCC(=O)OCCNc1cc(SCCC(=O)OC)c2nonc2c1[N+](=O)[O-]	19.3 (≈ 46.8 µM)
CC(C)Nc1nc(Cl)nc(Nc2ccccc2)n1	27.3 (≈ 104 µM)
O=C(c1ccc2ccccc2c1)N1CCCC1	19.7 (≈ 87.4 µM)
CCCCN(CC)C(=O)c1ccc(Cl)cc1	29.5 (≈ 123 µM)
Cc1ccc(Nc2cc(C)c(O)c(C)c2)cc1	10.5 (≈ 46.2 µM)
COc1cccc(CN2CC=C(c3ccc(F)cc3)CC2)c1	10.3 (≈ 34.6 µM)
COc1ccc(OCC(=O)Nc2ccc3c(c2)OCO3)cc1	42.3 (≈ 140 µM)

SMILES	solubility kinetic [µg/mL]
O=C(O)c1ccccc1NC(=O)C1C2C=CC(C2)C1C(=O)O (stereo not given)	> 45.2
COc1ccc(N2C(=O)CCC2(C(N)=O)c2ccccc2)cc1 (stereo not given)	> 46.6
NC(=O)CNC(=O)c1ccc(Cl)cc1	> 31.9
OC1/C(=C/c2ccc(C(F)(F)F)cc2)N2CCC1CC2 (stereo not given)	41.5 (≈ 146 µM)
CN(C(=O)/C=C/c1ccco1)c1ccccc1C(=O)O	> 40.7
CC1CCC(NC(=O)C2CC(=O)N(c3ccc(Cl)cc3)C2)CC1 (stereo not given)	2.3 (≈ 6.87 µM)
COc1ccccc1Nc1nc(C)nc2c1oc1ccccc12.Cl	0.5
Cc1ccccc1C(=O)NCC(=O)N1CCN(c2ccccn2)CC1	> 50.8
CC(C)(C)c1nnc(NS(=O)(=O)c2ccc([N+](=O)[O-])cc2)s1	> 51.4
Cc1nc(NC(=O)C2CC2)sc1C(=O)Nc1ccccc1Cl	2.1 (≈ 6.25 µM)
CC(=O)c1cccc(NC(=O)c2ccc3c(c2)OCO3)c1	2.2 (≈ 7.77 µM)
CCOC(=O)C(O)(c1ccc(N=c2ccccn2C)cc1)C(F)(F)F (stereo not given)	46.3 (≈ 131 µM)
Cc1c(C(=O)NC2CC2)oc2ccccc12	> 32.3
CCOc1cccc2cc(C(=O)NCc3ccc(C)cc3)c(=N)oc12	2.4 (≈ 7.13 µM)
Cc1c(C)c2ccc(OCC(=O)N3CCOCC3)c(C)c2oc1=O	> 49.7
O=C(O)CC1(CC(=O)NCc2cccc(Cl)c2)CCCCC1	> 48.6
OCCCc1cn(Cc2ccccc2)c2ccccc12	22.9 (≈ 86.3 µM)
Cc1ccc(N=C(N)N=C(N)N)c(C)c1	28.8 (≈ 140 µM)
O=C(NC1CCCC1)C1CCN(c2cnccn2)CC1	> 41.2
O=C(O)c1ncsc1-c1ccccc1	29.1 (≈ 142 µM)
O=C(O)c1nccnc1C(=O)Nc1ccc(Cl)cc1Cl	> 46.8
Cc1cnc(NC(=O)[C@H](C)N2C(=O)C3CCCCC3C2=O)s1 (stereo not given in full)	> 48.2
O=c1nc(N2CCCC2)nc(N2CCCC2)[nH]1	34.3 (≈ 146 µM)
COCCCNc1ncnc2c1sc1nc(-c3ccco3)c3c(c12)CC(C)(C)OC3	1.3 (≈ 3.06 µM)

SMILES	solubility kinetic [µg/mL]
CC(=O)c1sc(C(C)(C)C)cc1NC(=O)c1ccccc1C(=O)O	> 51.8
CC(C)(C)c1ccc(C(=O)OCC(=O)NCc2ccco2)cc1	39 (≈ 124 µM)
COc1ccccc1CNC(=O)CC1Sc2ccccc2NC1=O (stereo not given)	1.7 (≈ 4.96 µM)
O=C(Nc1ncc2c(n1)-c1ccccc1OC2)c1cccc([N+](=O)[O-])c1	1.4 (≈ 4.02 µM)
CN1C(=O)/C(=C\c2ccc(N3CCCCCC3)cc2)C(=O)NC1=S	2.7 (≈ 7.86 µM)
CCCOc1ccccc1Cn1c(=O)oc2ccccc21	3.9 (≈ 13.8 µM)
O=C(NCCCc1ccccc1)c1ccc(F)cc1	> 38.6
O=C1CCCC2=C1C(c1ccncc1)n1c(nc3ccccc31)N2 (stereo not given)	6.7 (≈ 21.2 µM)
CC(=O)Oc1ccc(-c2nc3c(C)cccc3c(=O)o2)cc1	2.9 (≈ 9.82 µM)
CCc1nc(NC(=O)Cc2csc(C)n2)sc1C(=O)OC	> 48.8
COC(=O)CSC(=S)N1CCCC(C)C1 (stereo not given)	> 37.1
COc1cccc([C@@]2(O)CCCC[C@@H]2CN(C)C)c1	> 39.5
CCC(Cc1ccccc1)NC(=O)CCc1ccccc1 (stereo not given)	> 42.2
CC(NC(=O)c1ccc(F)cc1Cl)C1CC2CCC1C2 (stereo not given)	16.6 (≈ 56.1 µM)
O=C(CSc1ncnc2sccc12)N1CCCCC1	> 44
CCCCCCC(=O)N(O)C1CC(=O)N(c2ccc(Cl)cc2)C1=O (stereo not given)	43.9 (≈ 124 µM)
CN(C)S(=O)(=O)c1ccc(C(=O)OCC(=O)N2CC3(C)CC2CC(C)(C)C3)cc1 (stereo not given)	> 63.4
Cc1cnc(=O)[nH]c1SCc1ccccc1F	> 37.5
Cc1ccc(-c2nc3ncccc3o2)cc1NC(=O)c1cccnc1	7.6 (≈ 23 µM)
Cc1cccn2c(=O)c(/C=C(\C#N)C(N)=O)c(N3CCCCCC3)nc12	5.1 (≈ 14.5 µM)
COc1ccc(NC(=O)C2CC(=O)N=C(N)S2)cc1 (stereo not given)	> 41.9
Cc1cccc(NC(=O)COC(=O)[C@@H]2CCCN2C(=O)c2cccs2)c1	2.8 (≈ 7.52 µM)
O=C1CCCN1CC(O)CS(=O)(=O)Cc1ccccc1Cl (stereo not given)	> 49.8
O=C1N=C(N2CCOCC2)S/C1=C\c1cccnc1	> 41.3

SMILES	solubility kinetic [µg/mL]
S=C1NCN(CCc2ccccc2)CN1Cc1ccccc1	0.4 (≈ 1.28 µM)
O=C(Cc1ccccc1F)NC1CCCc2ccccc21 (stereo not given)	16.7 (≈ 58.9 µM)
O=C(CCS(=O)(=O)c1ccccc1)Nc1ccccn1	> 43.6
CN(Cc1ccccc1)C(=O)COC(=O)c1cc(=O)[nH]c2ccccc12	34.4 (≈ 98.2 µM)
CCNC(=O)NC(=O)C(C)OC(=O)c1ccc(SC)cc1OC (stereo not given)	> 51.1
O=C(Cc1cccc2ccccc12)NCCOc1ccccc1F	3.7 (≈ 11.4 µM)
CC(=O)Nc1cccc(-c2csc(Nc3ccc(Cl)cn3)n2)c1	0.5 (≈ 1.45 µM)
Cc1ccc(OCC(=O)NC(C)c2ccccc2)c([N+](=O)[O-])n1 (stereo not given)	47.1 (≈ 149 µM)
CCCc1cc(=O)[nH]c(SCC(=O)N2CCCCCC2)n1	> 46.4
COC(CSc1ncnc2c1oc1nc3c(cc12)COC(C)(C)C3)OC	54.6 (≈ 145 µM)
O=C(COC(=O)c1nsc(Cl)c1Cl)NC1CCCCC1	> 50.6
Cc1cc2oc(=O)cc(CN3CCOCC3)c2cc1O	> 41.3
O=C(Cn1cnc2ccccc2c1=O)c1ccc(OC(F)F)cc1	9.2 (≈ 27.9 µM)
CC(=O)CC(CC(=O)NC1CCCCC1)c1ccccc1 (stereo not given)	> 43.1
O=C(Nc1ccccc1OC(F)(F)F)c1ccc([N+](=O)[O-])cc1	6.8 (≈ 20.8 µM)
COc1cccc(C(=O)Nc2cccc3cccnc23)c1OC	< 0.3
CCCC1=[N+](CC(C)=O)CCn2c(C)ccc21.[Br-]	> 47
CN(Cc1ccccc1)C(=O)COC(=O)c1ccc(Br)o1	> 52.8
Cc1cc[n+](C(C)C(=O)c2ccc(Cl)cc2)cc1.[Br-] (stereo not given)	> 51.1
Cl.Nc1nc2ccccc2n1C(=O)c1cccs1	2
C[C@H](NS(=O)(=O)c1ccccc1F)C(=O)OCC(=O)Nc1ccc2c(c1)OCCO2	> 65.8
COc1cccc(CNC(=O)CCNC(=O)c2ccco2)c1	> 45.3
CC(C)[C@H](NC(=O)c1ccccc1)C(=O)NC1=NCCS1	44.6 (≈ 146 µM)
Cc1cccc(NC2=CC(=O)CC(C)(C)C2)c1C	> 36.5

SMILES	solubility kinetic [µg/mL]
Cc1cc(-c2ccccc2)nc(N(C)C)c1S(C)(=O)=O	25 (≈ 86.1 µM)
Cc1cc(C)c(C(=O)O)c(Cl)n1	> 27.8
COC(=O)c1cccc(Nc2nc(-c3ccncc3)nc3ccccc23)c1	< 0.2
O=C(/C=C/c1ccco1)N1CCN(S(=O)(=O)c2cccc([N+](=O)[O-])c2)CC1	28.1 (≈ 71.8 µM)
COc1ccccc1N1CCN(CC(=O)c2c[nH]c3ccccc23)CC1	6.6 (≈ 18.9 µM)
O=C(NC1CCCCCC1)c1cccc(S(=O)(=O)N2CCOCC2)c1	6.5 (≈ 17.7 µM)
CC1=NN(C(N)=S)C(C)(C)C1	> 25.7
CCOc1ccccc1NC(=O)Cn1c(=O)oc2ccccc21	25.2 (≈ 80.7 µM)
Cc1ccc(Cl)c(OCCN2CCc3ccccc3C2)c1.Cl	4.4
COC(=O)c1c(C)nc(C)c(C(=O)OC)c1-c1ccc(OC)cc1	> 49.4
CN(C)C(=O)c1cc(C(=O)Cc2ccccc2)c[nH]1	37.7 (≈ 147 µM)
CC1CC(C)(C)Nc2ccc(N=O)cc21 (stereo not given)	> 30.6
O=C(CN1C(=O)S/C(=C\C=C\c2ccccc2)C1=O)N1CCOCC1	7.8 (≈ 21.8 µM)
Cc1cccc(C)c1NC(=O)N1CC(C)OC(C)C1 (stereo not given)	> 39.4
CC(=O)Nc1ccc2nc(-c3cccn3C)[nH]c2c1	33.4 (≈ 131 µM)
COc1ccc(NC(=O)N2CCCc3ccccc32)c(OC)c1	45.3 (≈ 145 µM)
Cc1ccccc1OC(C)C(=O)N1CCN(c2ccccn2)CC1 (stereo not given)	> 48.8
COc1ccccc1NC(=O)Nc1sccc1-c1nc2ccccc2s1	2.8 (≈ 7.34 µM)
CC(C)C(NC(=O)c1ccc(Cl)cc1Cl)C(=O)N1CCN(S(=O)(=O)c2ccccc2)CC1 (stereo not given)	2 (≈ 4.01 µM)
COc1cc(C(=O)Oc2cccnc2)cc(OC)c1OC.Cl	> 48.9
O=C1Nc2ccc([N+](=O)[O-])cc2OC1CCN1CCCC1 (stereo not given)	> 43.7
Cc1cccnc1NC(=O)c1ccc2c(c1)OCO2	> 38.4
Cc1cc(/C=C(\C#N)C(=O)OCC#N)c(C)n1CC(C)C	13.6 (≈ 47.7 µM)
O=S(=O)(NCCC1CC1(Cl)Cl)c1ccc(Cl)cc1 (stereo not given)	45.9 (≈ 140 µM)
